Data on four compounds can be found in US7186722B2, “2-heteroaryl-3,4-dihydro-2h-pyrrole derivatives and the use thereof as pesticides” (Bayer Cropscience AG, priority 2001, dated 2007).

Common to all, as to assay type: in vivo
Test [1] deals with greenhouse red spider mite (Tetranychus urticae). Description: Tetranychus Test (OP-resistent/dip treatment). The settings on record: 500 ppm, bean plants dipped, OP-resistent. Here is the method: Tetranychus Test (OP-Resistent/Dip Treatment)
(§1) • Solvent: 30 parts by weight of dimethylformamide • Emulsifier: 1 part by weight of alkylaryl polyglycol ether
(§2) To produce a suitable preparation of active compound, 1 part by weight of active compound is mixed with the stated amounts of solvent and emulsifier, and the concentrate is diluted with emulsifier-containing water to the desired concentration.
Bean plants (Phaseolus vulgaris) which are heavily infested by all stages of the greenhouse red spider mite (Tetranychus urticae) are dipped into a preparation of active compound of the desired concentration.
After the desired period of time, the effect in % is determined. 100% means that all spider mites have been killed; 0% means that none of the spider mites have been killed.

Test [2] relates to peach aphid (Myzus persicae). Description: Myzus Test. The conditions noted are these: 1000 ppm, cabbage leaves dipped. As for the experimental part:
• Solvent: 7 parts by weight of dimethylformamide • Emulsifier: 1 part by weight of alkylaryl polyglycol ether
as §2
Cabbage leaves (Brassica oleracea) which are heavily infested by the peach aphid (Myzus persicae) are treated by being dipped into the preparation of active compound of the desired concentration.
After the desired period of time, the kill in % is determined. 100% means that all aphids have been killed; 0% means that none of the aphids have been killed.

Test [3] has as its system caterpillars of the diamond back moth (Plutella xylostella). Description: Plutella Test. The settings on record: 8 ppm, cabbage leaves dipped. Here is the method:
as §1, §2
Cabbage leaves (Brassica oleracea) are treated by being dipped into the preparation of active compound of the desired concentration and are populated with caterpillars of the diamond back moth (Plutella xylostella) while the leaves are still moist.
After the desired period of time, the kill in % is determined. 100% means that all caterpillars have been killed; 0% means that none of the caterpillars have been killed.

For test [4], the system named is Meloidogyne incognita. As to the kind of experiment: Meloidogyne Test. The conditions noted are these: 20 ppm, nematicidal action by formation of galls on lettuce roots. Here is the method: as §1
To produce a suitable preparation of active compound, 1 part by weight of active compound is mixed with the stated amount of solvent and emulsifier, and the concentrated is diluted with water to the desired concentration.
Vessels are filled with sand, solution of active compound, Meloidogyne incognita egg/larvae suspension and lettuce seeds. The lettuce seeds germinate and the plants develop. On the roots galls are formed.
After the desired period of time, the nematicidal action is determined in % by the formation of galls. 100% means that no galls have been found; 0% means that the number of galls on the treated plants corresponds to that of the untreated control.

Regarding `Fc1cccc(F)c1C1=NC(c2cc3sc(-c4ccc(OC(F)(F)F)cc4)cc3s2)CC1` (stereo not shown) [drawing 97], the “Kill rate in % after 7 d” value in test [1] turned out to be 80%. For `Fc1cccc(F)c1C1=NC(c2cc3ccccc3s2)CC1` (stereo not shown) [drawing 86], in test [2], the “Kill rate in % after 6 d” value is 95%. Regarding `Fc1cccc(F)c1C1=NC(c2ccc(-c3ccc(OC(F)(F)F)cc3)s2)CC1` (stereo not shown) [drawing 90], in test [3], the “Kill rate in % after 6 d” value was found to be 90%. With `Fc1cccc(F)c1C1=NC(c2ccc(-c3cccc(OC(F)(F)F)c3)s2)CC1` (stereo not shown) [drawing 85], the “Kill rate in % after 14 d” value in test [4] is 98%.
